Assay results from patent publication US20250257095A1, “METHOD FOR VISIBLE LIGHT-MEDIATED CHEMICAL MODIFICATION OF POLYPEPTIDE AND PROTEIN BASED ON CYSTEINE” (SHANGHAI JIAO TONG UNIVERSITY, priority 2022, published 2025).

Assay: Plasma stability test (incubation in plasma at 37° C., LC-MS/MS)
Format: in vitro ADME
Conditions: 2 h later; for metabolised at 2 h, 5 μg/mL: read-out: compound degraded in plasma
Procedure: About 3 μL of a 500 μg/mL compound was taken and added to 297 μL of plasma. Incubation was conducted at 37° C. for 0 h to 3 h. 20 μL of a sample was collected at 1 min, 10 min, 30 min, 60 min, and 120 min. Then 100 μL of acetonitrile was added to precipitate proteins. Then 1 μL of a sample was collected and tested by liquid chromatography-tandem triple quadrupole mass spectrometer (LC-MS/MS) to determine a downward response of the compound in the plasma. The stability of the compound in the plasma could be quantified through plotting.

| metabolised at 2 h, 5 μg/mL | compound degraded in plasma | SMILES |
| --- | --- | --- |
| ~14% |  | CCN1C(=O)CC(SC[C@@H](NC(=O)[C@@H](Cc2ccccc2)NC(=O)OC(C)(C)C)C(=O)O)C1=O (stereo partly shown) [compound 1] |
|  | not observed | COC(=O)[C@H](CCC(=O)c1ccccc1)NC(=O)[C@H](CCCCNC(=O)OC(C)(C)C)NC(=O)OCc1ccccc1 [DP-11] |
| ~1.5% |  | CCN1C(=O)CC(SC[C@@H](NC(=O)[C@@H](CCCCNC(=O)OC(C)(C)C)NC(=O)OCc2ccccc2)C(=O)O)C1=O (stereo partly shown) [compound 2] |
|  | not observed | COC(=O)[C@H](CCC(=O)c1ccccc1)NC(=O)[C@H](Cc1ccccc1)NC(=O)OC(C)(C)C [DP-04] |
